The values that follow come from ChEMBL document CHEMBL5104199, “Design, Synthesis, and Biochemical and Biological Evaluation of Novel 7-Deazapurine Cyclic Dinucleotide Analogues as STING Receptor Agonists” (J Med Chem, 2022).

In series [1] the target is T1, Stimulator of interferon genes protein (Homo sapiens, UniProt Q86WV6). The settings on record: filed as agonist.
Description: Binding affinity to human wild type STING assessed as change in melting temperature by differential scanning fluorimetry (DSF) method
Series [2] can be described thus: Cytotoxicity against human PBMC cells. Format: toxicity, cell-based.
Series [3] in a line: Induction of TNFalpha secretion in human PBMC incubated for 16 hrs.
The nature of series [4]: cells. The settings on record: Homo sapiens, HEK-293T.
Description: Agonist activity at human STING Q expressed in 293T cells by digitonin cell based assay
A short description of series [5]: cells. The settings on record: Homo sapiens, HEK-293T. This is another data set of the same source.
Description: Agonist activity at human STING REF expressed in 293T cells by digitonin cell based assay
The target of series [6] is T1, Stimulator of interferon genes protein. Nature of the series: Agonist activity at human wild type STING expressed in 293T cells by digitonin cell based assay. Set-up: species or system HEK293T.
The nature of series [7]: cells. The settings on record: Homo sapiens, HEK-293T. This is another data set of the same source.
Description: Agonist activity at human STING AQ expressed in 293T cells by digitonin cell based assay
A short description of series [8]: cells. The settings on record: Homo sapiens, HEK-293T. This is another data set of the same source.
Description: Agonist activity at human STING HAQ expressed in 293T cells by digitonin cell based assay
Series [9] is described as follows: Induction of IFNgamma secretion in human PBMC incubated for 16 hrs.
A short description of series [10]: Induction of IFNalpha secretion in human PBMC incubated for 16 hrs.
In series [11] the target is T1, Stimulator of interferon genes protein. Nature of the series: Agonist activity at human wild type full length STING expressed in 293T cells incubated for 7 hrs by luciferase/cell based assay. Set-up: species or system HEK-293T.

Where only a bound is given, the exact number is not on record here.

T1 sequence (Q86WV6 whole entry): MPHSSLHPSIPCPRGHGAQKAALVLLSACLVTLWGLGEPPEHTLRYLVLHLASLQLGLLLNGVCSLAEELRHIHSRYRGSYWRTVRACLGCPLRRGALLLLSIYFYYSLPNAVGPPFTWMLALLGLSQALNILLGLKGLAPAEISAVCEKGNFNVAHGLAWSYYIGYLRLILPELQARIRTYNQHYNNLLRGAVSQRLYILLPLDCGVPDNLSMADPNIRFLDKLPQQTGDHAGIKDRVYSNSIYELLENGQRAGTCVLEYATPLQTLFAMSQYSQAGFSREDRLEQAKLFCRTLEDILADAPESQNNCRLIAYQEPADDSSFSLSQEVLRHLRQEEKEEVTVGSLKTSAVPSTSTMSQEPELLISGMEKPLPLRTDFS

For the compound `Nc1nc2c(ncn2[C@@H]2O[C@@H]3COP(=O)(O)O[C@H]4[C@@H](O)[C@H](n5cc(-c6cccc7ccccc67)c6c(N)ncnc65)O[C@@H]4COP(=O)(O)O[C@@H]2[C@@H]3O)c(=O)[nH]1`, the ΔTm (usually the change in melting temperature against a reference sample) in [1] stood at 4.4 °C. Also, in series [2], the Activity result is “Non-Toxic”. Besides, the half-maximal effective concentration (EC50) – broadly, the concentration that produces a half-maximal response – in series [3] is more than 200 µM; in the series “cells [4]”, 7.23 µM; in “cells [5]”, 18.9 µM; in series [6] it was 1.1 µM; in “cells [7]”, 0.47 µM; in the series “cells [8]”, 0.497 µM.
On to `Nc1nc2c(ncn2[C@@H]2O[C@@H]3COP(=O)(O)O[C@H]4[C@@H](O)[C@H](n5cc(-c6cc7ccccc7o6)c6c(N)ncnc65)O[C@@H]4COP(=O)(O)O[C@@H]2[C@@H]3O)c(=O)[nH]1`, for which the thermal shift (ΔTm) in [1] stood at 12.1 °C. For the same compound, in series [2], the Activity entry is “Non-Toxic”. The 50% effective concentration (EC50) in series [3] turned out to be 24.6 µM; in “cells [4]”, 0.176 µM; in [9], 8.33 µM; in “cells [5]”, 0.334 µM; in series [10], 12.8 µM; in [6], 0.076 µM. Further, the EC50 in “cells [7]” was 0.085 µM; in the series “cells [8]”, 0.06 µM.
Take `Nc1nc2c(ncn2[C@@H]2O[C@@H]3COP(=O)(O)O[C@H]4[C@@H](O)[C@H](n5cc(-c6ccc(-c7ccc8ccccc8c7)cc6)c6c(N)ncnc65)O[C@@H]4COP(=O)(O)O[C@@H]2[C@@H]3O)c(=O)[nH]1`: the thermal shift (ΔTm) in series [1] came to 13 °C. In series [2], the Activity entry was “Non-Toxic”. The EC50 in series [3] was 53.9 µM; in “cells [4]” it was 0.95 µM; in [9], 1.77 µM; in the series “cells [5]” it was 1 µM; in series [10] it was 5.09 µM; in series [6] it was 0.032 µM. The EC50 came to 0.16 µM in the series “cells [7]” and 0.132 µM in “cells [8]”.
Take `Nc1nc2c(ncn2[C@@H]2O[C@@H]3COP(=O)(O)O[C@H]4[C@@H](O)[C@H](n5cc(-c6cccc7c6oc6ccccc67)c6c(N)ncnc65)O[C@@H]4COP(=O)(O)O[C@@H]2[C@@H]3O)c(=O)[nH]1`: in series [1], the ΔTm turned out to be 7.1 °C. For the same compound, in [2], the Activity result is reported as “Non-Toxic”. Besides, the EC50 in series [3] was 99.7 µM; in “cells [4]”, 7.07 µM; in the series “cells [5]”, 8.97 µM; in series [6], 0.367 µM; in “cells [7]”, 0.869 µM; in the series “cells [8]” it was 0.503 µM.
Regarding `Nc1nc2c(ncn2[C@@H]2O[C@@H]3COP(=O)(O)O[C@H]4[C@@H](O)[C@H](n5cc(-c6ccc7ccccc7c6)c6c(N)ncnc65)O[C@@H]4COP(=O)(O)O[C@@H]2[C@@H]3O)c(=O)[nH]1`, in series [1], the ΔTm is 14.4 °C. In addition, in series [2], the Activity entry is “Non-Toxic”. Also, the EC50 in series [3] was 98.8 µM; in “cells [4]” it was 0.7 µM; in the series “cells [5]”, 1.4 µM; in series [6], 0.048 µM; in “cells [7]” it was 0.55 µM; in the series “cells [8]” it was 0.695 µM.
On to `Nc1nc2c(ncn2[C@@H]2O[C@@H]3COP(=O)(O)O[C@H]4[C@@H](O)[C@H](n5cnc6c(N)ncnc65)O[C@@H]4COP(=O)(O)O[C@@H]2[C@@H]3O)c(=O)[nH]1`, for which the Activity entry in series [2] is on record as “Non-Toxic”.
`Nc1nc2c(c(-c3ccccc3)cn2[C@@H]2O[C@@H]3COP(=O)(O)O[C@H]4[C@@H](O)[C@H](n5cc(-c6ccccc6)c6c(N)ncnc65)O[C@@H]4COP(=O)(O)O[C@@H]2[C@@H]3O)c(=O)[nH]1`: the shift in melting temperature (ΔTm) in series [1] worked out at 1 °C. For the same compound, the EC50 in “cells [4]” is 0.271 µM; in “cells [5]”, 19.5 µM; in series [6], 6.41 µM; in “cells [7]” it was 10.3 µM; in [11], more than 150 µM; in the series “cells [8]”, 9.42 µM.
Regarding `Nc1ncnc2c1c(-c1ccccc1)cn2[C@@H]1O[C@@H]2COP(=O)(O)O[C@@H]3[C@H](O)[C@@H](COP(=O)(O)O[C@H]2[C@H]1O)O[C@H]3n1cc(-c2ccccc2)c2c(N)ncnc21`, the ΔTm in series [1] was -0.6 °C. Further, the EC50 in the series “cells [4]” was more than 45 µM; in “cells [5]”, more than 45 µM; in series [6], more than 45 µM; in “cells [7]” it was more than 45 µM; in series [11], more than 150 µM; in “cells [8]”, more than 45 µM.
Turning to `Nc1nc2c(ncn2[C@@H]2O[C@@H]3COP(=O)(O)O[C@@H]4[C@H](O)[C@@H](COP(=O)(O)O[C@@H]2[C@@H]3O)O[C@H]4n2cnc3c(N)ncnc32)c(=O)[nH]1`, the ΔTm in series [1] worked out at 2.5 °C. Moreover, the Activity result in series [2] is listed as “Non-Toxic”. Moreover, the EC50 was 44.5 µM in series [3]; 7.09 µM in “cells [4]”; 11.8 µM in series [9]; 59.5 µM in the series “cells [5]”; 7.21 µM in [10]; 0.26 µM in series [6]. Moreover, the EC50 in the series “cells [7]” is 0.173 µM; in series [11], more than 150 µM; in the series “cells [8]” it was 0.189 µM.
On to `Nc1nc2c(ncn2[C@@H]2O[C@@H]3COP(=O)(O)O[C@H]4[C@@H](O)[C@H](n5cc(-c6ccccc6)c6c(N)ncnc65)O[C@@H]4COP(=O)(O)O[C@@H]2[C@@H]3O)c(=O)[nH]1`, for which the ΔTm in [1] was 8.1 °C. The Activity result in series [2] is given as “Non-Toxic”. Moreover, the EC50 in series [3] came to 52.5 µM; in “cells [4]” it was 1.7 µM; in the series “cells [5]” it was 5.9 µM; in series [6], 0.063 µM; in the series “cells [7]”, 0.307 µM; in the series “cells [8]” it was 0.385 µM.
As to `Nc1nc2c(ncn2[C@@H]2O[C@@H]3COP(=O)(O)O[C@H]4[C@@H](O)[C@H](n5cc(-c6cc7ccccc7c7ccccc67)c6c(N)ncnc65)O[C@@H]4COP(=O)(O)O[C@@H]2[C@@H]3O)c(=O)[nH]1`, the shift in melting temperature (ΔTm) in [1] stood at 4.4 °C. Further, the Activity entry in [2] is “Non-Toxic”. Further, the EC50 is more than 200 µM in series [3]; more than 45 µM in “cells [4]”; more than 45 µM in the series “cells [5]”; more than 200 µM in series [10]; 0.061 µM in series [6]; 1.4 µM in “cells [7]”. Besides, a half-maximal response in “cells [8]” (EC50) required 0.9 µM.
As to `Nc1nc2c(ncn2[C@@H]2O[C@@H]3COP(=O)(O)O[C@H]4[C@@H](O)[C@H](n5cc(-c6ccco6)c6c(N)ncnc65)O[C@@H]4COP(=O)(O)O[C@@H]2[C@@H]3O)c(=O)[nH]1`, the Activity entry in series [2] is “Non-Toxic”.
For the compound `Nc1nc2c(ncn2[C@@H]2O[C@@H]3COP(=O)(O)O[C@H]4[C@@H](O)[C@H](n5cc(-c6ccc7c8c(cccc68)CC7)c6c(N)ncnc65)O[C@@H]4COP(=O)(O)O[C@@H]2[C@@H]3O)c(=O)[nH]1`, in [1], the ΔTm turned out to be 2.5 °C. The Activity entry in series [2] is “Non-Toxic”. Besides, the half-maximal effective concentration (EC50) in [3] is more than 200 µM; in “cells [4]”, 35.9 µM; in series [9], 85.2 µM; in the series “cells [5]” it was more than 45 µM; in [10], 74.7 µM; in series [6] it was 1.16 µM. Further, the EC50 is 1.53 µM in “cells [7]”, more than 150 µM in series [11] and 1.63 µM in “cells [8]”.
For `Cc1cn([C@@H]2O[C@@H]3COP(=O)(O)O[C@@H]4[C@H](O)[C@@H](COP(=O)(O)O[C@H]3[C@H]2O)O[C@H]4n2cnc3c(=O)[nH]c(N)nc32)c2ncnc(N)c12`, the Activity result in [2] is recorded as “Non-Toxic”.
On to `Nc1nc2c(ncn2[C@@H]2O[C@@H]3COP(=O)(O)O[C@H]4[C@@H](O)[C@H](n5cc(-c6cc7ccccc7s6)c6c(N)ncnc65)O[C@@H]4COP(=O)(O)O[C@@H]2[C@@H]3O)c(=O)[nH]1`, for which, in series [1], the ΔTm was found to be 13.5 °C. In addition, the Activity result in series [2] is on record as “Non-Toxic”. Also, the EC50 was 1.43 µM in series [3]; 0.25 µM in the series “cells [4]”; 0.87 µM in series [9]; 0.35 µM in “cells [5]”; 4.04 µM in series [10]; 0.035 µM in series [6]. Besides, the EC50 in “cells [7]” amounted to 0.33 µM; in the series “cells [8]” it was 0.195 µM.
On to `Nc1nc2c(ncn2[C@@H]2O[C@@H]3COP(=O)(O)O[C@H]4[C@@H](O)[C@H](n5cc(-c6ccccc6)c6c(N)ncnc65)O[C@@H]4COP(=O)(O)O[C@H]3[C@H]2O)c(=O)[nH]1`, for which the ΔTm in [1] is 5.1 °C. In addition, in series [2], the Activity result is reported as “Non-Toxic”. Besides, the EC50 in series [3] was 65.8 µM; in the series “cells [4]”, 4.48 µM; in [9], 12.6 µM; in “cells [5]” it was 10.4 µM; in [10] it was 6.92 µM; in [6], 0.11 µM. The EC50 in “cells [7]” was 0.28 µM; in series [11] it was more than 150 µM; in the series “cells [8]”, 0.367 µM.
For the compound `Nc1nc2c(ncn2[C@@H]2O[C@@H]3COP(=O)(O)O[C@H]4[C@@H](O)[C@H](n5cc(-c6cccs6)c6c(N)ncnc65)O[C@@H]4COP(=O)(O)O[C@@H]2[C@@H]3O)c(=O)[nH]1`, the Activity entry in series [2] was “Non-Toxic”.
For the compound `Nc1nc2c(ncn2[C@@H]2O[C@@H]3COP(=O)(O)O[C@H]4[C@@H](O)[C@H](n5cnc6c(N)ncnc65)O[C@@H]4COP(=O)(O)O[C@H]3[C@H]2O)c(=O)[nH]1`, the Activity result in series [2] is “Non-Toxic”. The EC50 was determined as 18.7 µM in series [3], 17.2 µM in series [9] and 7.65 µM in [10].
Consider `Nc1nc2c(ncn2[C@@H]2O[C@@H]3COP(=O)(O)O[C@H]4[C@@H](O)[C@H](n5cc(C6CC6)c6c(N)ncnc65)O[C@@H]4COP(=O)(O)O[C@@H]2[C@@H]3O)c(=O)[nH]1`, for which the Activity entry in [2] is “Non-Toxic”.
Take `Nc1nc2c(ncn2[C@@H]2O[C@@H]3COP(=O)(O)O[C@H]4[C@@H](O)[C@H](n5cc(-c6ccc(-c7ccccc7)cc6)c6c(N)ncnc65)O[C@@H]4COP(=O)(O)O[C@@H]2[C@@H]3O)c(=O)[nH]1`: the ΔTm in series [1] turned out to be 12.3 °C. The Activity entry in series [2] is “Non-Toxic”. In addition, the EC50 in series [3] turned out to be 13.6 µM; in the series “cells [4]”, 0.235 µM; in series [9], 2.05 µM; in the series “cells [5]” it was 0.346 µM; in series [10] it was 7.43 µM; in series [6], 0.013 µM. In addition, the half-maximal effective concentration (EC50) in “cells [7]” was found to be 0.092 µM; in “cells [8]”, 0.173 µM.
